Data on six molecules can be found in PMC7070443, “New Hybrid Pyrazole and Imidazopyrazole Antinflammatory Agents Able to Reduce ROS Production in Different Biological Targets” (Molecules, 2020).

Series [1] addresses T1, PDE4B2 (Homo sapiens, UniProt Q07343).
T1 construct: host or cells: Spodoptera frugiperda (Sf9), baculovirus
The series can be described thus: PDE4 enzymatic assay (IMAP fluorescence polarisation). The format is biochemical. As to conditions: for inhibition at 10 µM: in duplicate, read-out: inhibition of PDE4B2, preliminary test; for IC50: human recombinant enzyme. The protocol:
(§1) PDE4 tests were performed by Scottish Biomedical Drug Discovery (Scottish, Biomedical Drug Discovery, Glasgow, UK) using human recombinant enzyme obtained from Spodoptera frugiperda (Sf9) cells using a baculovirus expression system (PDE enzyme at 0.5 U/mL in 20 mM Tris.HCl pH 7.4) as previously reported. IMAP technology is based on the high affinity binding of phosphate by immobilized metal coordination complexes on nanoparticles. The binding reagent complexes with phosphate groups on nucleotide monophosphate generated from cyclic nucleotides ([…]) through phosphodiesterases. With fluorescence polarisation detection, binding causes a change in the rate of the molecular motion of the phosphate bearing molecule, and results in an increase in the fluorescence polarization value observed for the fluorescent label attached to the substrate.
(§2) Title compounds 4d and 5d were solved in DMSO at 10^−2 M concentration and then diluted with water to the final suitable concentrations. All our subsequent assays were performed in 3% DMSO (final). All the compounds were tested preliminary at 10 µM concentration, in duplicate.
(§3) In all the experiments, Rolipram as reference compound (at 10 μM for PDE4B2 and 1 μM for PDE4D3) was tested at nine concentrations, in duplicate, to obtain an inhibition curve in order to validate this experiment.
(§4) Being inhibition >50%, 4d and 5d have been further tested in the same assay at five different concentrations (5 × 10^−8–10^−4 M) and IC50 values were determined by nonlinear regression analysis of the inhibition curve, using Hill equation curve fitting (Graph Pad Prism software, version 5.0a).
In general terms: In fluorescence polarisation assays a small probe gives low polarisation when free and higher when bound to something large.

Series [2] concerns the target T2, PDE4D3 (Homo sapiens, UniProt Q08499).
T2 construct: host or cells: Spodoptera frugiperda (Sf9), baculovirus
Described as above. The format is biochemical. As to conditions: for inhibition at 10 µM: in duplicate, read-out: inhibition of PDE4D3, preliminary test; for IC50: human recombinant enzyme. How it is done:
as §1, §2, §3, §4

The test system of series [3] is human neutrophils. The experiment in a line: Neutrophil chemotaxis inhibition (fMLP stimulated). The class given is cell-based. As to conditions: data not shown.
The test system of series [4] is human neutrophils. The experiment in a line: Flow cytometric evaluation of ROS production in fMLP-activated neutrophils (DCFH-DA). The format is cell-based. As to conditions: for inhibition at 10 µM: Homo sapiens, Neutrophil, DCFH-DA method, read-out: ROS production inhibition percentage; for activity towards ROS production in neutrophils (in words): data not shown. The source says:
Heparinized (heparin 10 U/mL Vister, PfizerItalia, Borgo San Michele, Latina, Italy) venous blood was obtained from healthy male volunteers after written informed consent. Neutrophils were isolated by dextran sedimentation (Dextran 70.000 Plander, Fresenius Kabi Italia, Verona, Italy), and subsequent centrifugation on a Ficoll-Hypaque density gradient (Lympholyte-I from Cedarlane Laboratories Ltd. Hornby, ON, Canada), as described. Contaminating erythrocytes were removed by hypotonic lysis. Neutrophils were washed and resuspended in Hanks’balanced salt solution (HBSS; EuroCLone, Wetherby West, Yorkshire, UK) mixed with Dulbecco’s PBS (EuroClone; HBBS:PBS. Final cell suspensions contained 97% or more neutrophils and more than 98% viable cells, as evaluated by a trypan blue test kit (Sigma Aldrich).
Flow cytometric analysis of neutrophil oxidative metabolism was carried out according to literature method. Briefly, neutrophils, were cultured for 1 h with or without 4d and 5d at different concentration. Thereafter, neutrophils were pre-treated with 2′-7′-dichlorofluorescein-diacetate (DCFH-DA; Sigma, Milan, Italy) ([…]), During the incubation time, DCFH-DA entered into the cells, and it was cleaved by intracellular esterases to give non-fluorescence DCFH trapped within the cells. After washing in PBS, the cells were incubated for 15 min at room temperature in the presence or absence of N-formyl-L-methionin-L-leucyl-L-phenylalanine (fMLP; Sigma, Milan, Italy) ([…]) for 30 min at 37 °C. During this period, intracellular ROS oxidized DCFH to give a green fluorescence […]. The reaction was stopped by keeping the samples on ice before being analyzed by flow cytometry (FC500, Beckman Coulter).

Series [5] deals with human platelets. The experiment in a line: Platelet aggregation inhibition (Born's method, thrombin-stimulated washed platelets). The format is cell-based. To be noted: Platelet, 0.1 U/mL thrombin, mean +/- SD, at least six experiments in duplicate. How it is done: (§5) Freshly drawn venous blood from healthy volunteers of the “Centro Trasfusionale, Ospedale San Martino” in Genoa was collected into 130 mM aqueous trisodium citrate anticoagulant solution (9:1). The donors claimed to have not taken drugs known to interfere with platelet function during two weeks prior to blood collection and gave their informed consent. Washed platelets were prepared centrifuging whole blood at 100× g for 20 min. The obtained platelet-rich plasma was then centrifuged at 1100× g for 15 min. Pellet was washed once with pH 5.2 ACD solution (75 mM trisodium citrate, 42 mM citric acid and 136 mM glucose), centrifuged at 1100× g for 15 min and then re-suspended in pH 7.4 Hepes buffer (145 mM NaCl, 5 mM KCl, 1 mM MgSO4, 10 mM glucose, 10 mM HEPES).
Platelet aggregation was performed in a Bio-Data Aggregometer (Bio-Data Corporation, Horsham, PA, USA) according to Born’s method and quantified by the light transmission reached within 6 min at 37 °C. Briefly, washed platelets (3.0 × 10^8/mL) were pre-incubated for 3 min at 37 °C with saline, compound 4 or 5 before the addition of 0.1 U/mL thrombin. The IC50 values were calculated as above detailed.

The test system of series [6] is human neutrophils. The experiment in a line: Cell vitality by propidium iodide (PI) method in neutrophils. As to conditions: 10 µM. The class given is cell-based. The protocol:
(§6) In the same test, cell vitality in presence of 4d (10 µM) was assessed by propidium iodide (PI) method at the end of the incubation time. In detail, in the same tubes we added PI staining solution (10 μg/mL, Invitrogen ThermoFisher Scientific, Waltham, MA, USA) to detect dead cells. PI is excited at 488 nm and, emits at a maximum wavelength of 617 nm. Because of these spectral characteristics, PI can be used in combination with other fluorochromes excited at 488 nm such as fluorescein isothiocyanate (FITC). Auto-fluorescence levels of sample were measured and subtracted from each analysis. Data were expressed as mean fluorescence intensity ((MFI), compared with the expression on cells stimulated with control medium alone (defined as 100%)).

Series [7] has as its system human platelets. The experiment in a line: ROS production inhibition in thrombin-stimulated washed platelets (DCFH-DA, flow cytometry). The format is cell-based. To be noted: for IC50: washed human platelets, 0.1 U/mL thrombin, DCFH-DA, mean +/- SD, at least six experiments in duplicate; for activity towards ROS production in platelets (in words): human platelets, thrombin stimulated. How it is done:
as §5
ROS production was quantified as previously reported by DCFH-DA, a ROS-sensitive probe that yields upon oxidation the fluorescent adduct DCF that is trapped inside the cells. Briefly, washed platelets (1.0 × 10^8/mL), pre-incubated with saline, compounds 4 or 5, for 15 min at 37 °C, were stimulated by 0.1 U/mL thrombin. Incubation was stopped by cooling samples in ice bath and then samples were immediately analyzed in a Merck Millipore Bioscience Guava easyCyte flow cytometer (Merk Millipore, Burlington, MA, USA). The reported IC50 value is the molar concentration of the compound able to obtain 50% inhibition of the […] induced by the agonist and is calculated by the percentage of inhibition that is the inhibition of the […] measured in the presence of the agent compared with that measured in a control sample containing saline, carried out under the same conditions.
(In general: In flow cytometry, cells or beads pass a laser one at a time.)

Series [8] concerns the target PDE5 (Homo sapiens, UniProt O76074). The series can be described thus: Preliminary PDE selectivity evaluation. The class given is biochemical. As to conditions: 10 µM; data not shown.
Series [9] concerns the target PDE2 (Homo sapiens, UniProt O00408). The experiment in a line: Preliminary PDE selectivity evaluation. The class given is biochemical. To be noted: 10 µM; data not shown.
The subject of series [10] is PDE7. The experiment in a line: Preliminary PDE selectivity evaluation. The class given is biochemical. As to conditions: 10 µM; data not shown.
Series [11] concerns PDE3. The experiment in a line: Preliminary PDE selectivity evaluation. As to conditions: 10 µM; data not shown. The format is biochemical.
Series [12] can be described thus: Cell vitality by propidium iodide (PI) method in neutrophils. To be noted: human, human neutrophils, PI method. The format is cell-based. The protocol: as §6
Series [13] concerns PDE1. The series can be described thus: Preliminary PDE selectivity evaluation. The class given is biochemical. As to conditions: 10 µM; data not shown.
Series [14] deals with PDE4D3. To be noted: Figure 2; cited from earlier work.

For orientation: inhibition means the share of the control response that was lost under treatment. Broadly, the IC50 is the midpoint of a concentration-inhibition curve. One may read the viability as a per cent measure of how many cells are alive, often set against a control. As usually defined, the melting point is the temperature of the solid-liquid transition.

T2 sequence (Q08499 1-673 isoform Q08499-2): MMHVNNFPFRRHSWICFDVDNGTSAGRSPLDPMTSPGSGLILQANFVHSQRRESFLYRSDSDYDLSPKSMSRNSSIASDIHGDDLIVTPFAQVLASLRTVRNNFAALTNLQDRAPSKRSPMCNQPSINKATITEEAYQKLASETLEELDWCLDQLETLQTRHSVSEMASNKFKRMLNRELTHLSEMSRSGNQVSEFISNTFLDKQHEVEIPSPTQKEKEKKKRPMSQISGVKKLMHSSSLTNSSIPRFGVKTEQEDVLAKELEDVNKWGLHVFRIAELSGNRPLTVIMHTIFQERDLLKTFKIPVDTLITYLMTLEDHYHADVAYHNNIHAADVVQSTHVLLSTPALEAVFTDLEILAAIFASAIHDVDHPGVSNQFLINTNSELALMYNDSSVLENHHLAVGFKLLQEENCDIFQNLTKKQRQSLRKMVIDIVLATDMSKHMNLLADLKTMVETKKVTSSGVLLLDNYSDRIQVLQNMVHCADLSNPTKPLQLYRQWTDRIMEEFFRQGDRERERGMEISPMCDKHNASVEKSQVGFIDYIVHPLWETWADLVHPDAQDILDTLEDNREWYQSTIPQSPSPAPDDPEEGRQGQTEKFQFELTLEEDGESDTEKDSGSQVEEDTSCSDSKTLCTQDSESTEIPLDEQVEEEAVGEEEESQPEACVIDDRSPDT
T1 sequence (Q07343 1-564 isoform Q07343-2): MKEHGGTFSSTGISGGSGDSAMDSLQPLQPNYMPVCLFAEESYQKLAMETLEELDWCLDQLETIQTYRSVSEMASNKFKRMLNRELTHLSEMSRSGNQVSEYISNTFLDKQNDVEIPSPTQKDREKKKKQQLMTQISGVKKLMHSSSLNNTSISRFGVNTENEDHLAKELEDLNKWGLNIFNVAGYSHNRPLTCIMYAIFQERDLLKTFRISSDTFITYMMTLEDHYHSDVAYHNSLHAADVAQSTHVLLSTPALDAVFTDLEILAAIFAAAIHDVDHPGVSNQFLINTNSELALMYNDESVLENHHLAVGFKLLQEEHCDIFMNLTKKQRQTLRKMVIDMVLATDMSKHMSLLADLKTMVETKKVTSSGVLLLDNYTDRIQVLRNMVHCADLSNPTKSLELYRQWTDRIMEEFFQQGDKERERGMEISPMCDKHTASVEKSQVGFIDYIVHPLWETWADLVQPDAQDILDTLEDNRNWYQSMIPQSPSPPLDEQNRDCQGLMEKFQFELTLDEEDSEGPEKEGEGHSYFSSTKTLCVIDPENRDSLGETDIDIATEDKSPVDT
PDE2, sequence (O00408 whole entry): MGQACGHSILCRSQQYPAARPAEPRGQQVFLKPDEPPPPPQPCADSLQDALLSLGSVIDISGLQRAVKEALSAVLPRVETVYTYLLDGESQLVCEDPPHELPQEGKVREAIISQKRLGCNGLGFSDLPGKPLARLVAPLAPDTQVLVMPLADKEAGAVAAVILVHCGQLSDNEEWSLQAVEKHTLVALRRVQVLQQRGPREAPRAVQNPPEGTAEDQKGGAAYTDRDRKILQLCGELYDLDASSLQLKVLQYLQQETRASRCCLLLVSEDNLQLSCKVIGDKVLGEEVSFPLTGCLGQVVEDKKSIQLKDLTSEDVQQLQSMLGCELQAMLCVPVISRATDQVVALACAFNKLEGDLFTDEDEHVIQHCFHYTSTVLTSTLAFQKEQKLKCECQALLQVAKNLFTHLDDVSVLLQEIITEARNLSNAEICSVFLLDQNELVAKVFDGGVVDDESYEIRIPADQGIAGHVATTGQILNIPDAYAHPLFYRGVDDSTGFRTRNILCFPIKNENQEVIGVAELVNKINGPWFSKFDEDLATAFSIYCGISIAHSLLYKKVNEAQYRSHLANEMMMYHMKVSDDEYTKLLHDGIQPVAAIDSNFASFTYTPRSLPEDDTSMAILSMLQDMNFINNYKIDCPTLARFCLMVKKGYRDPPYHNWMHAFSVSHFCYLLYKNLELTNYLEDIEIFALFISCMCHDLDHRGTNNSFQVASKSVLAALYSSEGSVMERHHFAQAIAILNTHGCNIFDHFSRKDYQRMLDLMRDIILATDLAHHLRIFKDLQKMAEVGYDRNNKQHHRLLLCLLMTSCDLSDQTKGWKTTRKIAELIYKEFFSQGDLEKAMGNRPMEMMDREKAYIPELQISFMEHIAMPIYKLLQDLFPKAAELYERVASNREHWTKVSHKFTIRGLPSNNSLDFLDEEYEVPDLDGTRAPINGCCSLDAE

For the molecule `COc1ccc(/C=N/NC(=O)c2cnn3c2NC(c2ccccc2)C3)cc1OC1CCCC1` (centres unmarked) [5d, (E)-N′-(3-(cyclopentyloxy)-4-methoxybenzylidene)-2-phenyl-2,3-dihydro-1H-imidazo[1,2-b]pyrazole-7-carbohydrazide], the inhibition at 10 µM is > 50% in series [1], > 50% in series [2] and 63% in series [4]. Further, the IC50 was 0.55 µM in series [1]; 1.22 µM in [2]; 71 ± 6.8 µM in [5]; 70.6 ± 7.4 µM in series [7] (Homo sapiens, Platelet). The chemotaxis inhibition result in [3] is “very low or absent”. Moreover, the “cytotoxic action (PI method)” value in [6] was “no cytotoxic action”.
Regarding `COc1ccc(/C=N/NC(=O)c2cnn(CC(O)c3ccccc3)c2N)cc1OC1CCCC1` (centres unmarked) [4d, (E)-5-Amino-N′-(3-(cyclopentyloxy)-4-methoxybenzylidene)-1-(2-hydroxy-2-phenylethyl)-1H-pyrazole-4-carbohydrazide], the “inhibition of PDE5” value in series [8] is given as “no inhibition”. Moreover, the “inhibition of PDE2” value in [9] is given as “no inhibition”. The inhibition at 10 µM in [1] is > 50%; in series [2], > 50%; in series [4], 68%. The IC50 in series [1] is 0.55 µM; in [2] it was 1.05 µM; in series [5], 29.8 ± 3.7 µM; in series [7] (Homo sapiens, Platelet) it was 40 µM; in [7], 38.3 ± 2.8 µM. In series [3], the chemotaxis inhibition entry is recorded as “very low or absent”. Further, in series [10], the “inhibition of PDE7” value is “no inhibition”. Further, the “inhibition of PDE3” value in series [11] is on record as “no inhibition”. For the same molecule, the viability at 10 µM in series [12] was > 95%. For the same molecule, the “cytotoxic action (PI method)” value in series [6] is given as “no cytotoxic action”. Further, in series [13], the “inhibition of PDE1” value was “no inhibition”.
In the case of `COc1ccc(-c2ccn(CC(O)CN3CCOCC3)n2)cc1OC1CCCC1` (centres unmarked) [GEBR-54], the IC50 in series [14] was 7.6 µM.
For `COc1ccc(/C=N/OCC(O)CN2CC(C)OC(C)C2)cc1OC1CCCC1` (centres unmarked) [GEBR-4a], the IC50 in series [14] was 2.8 µM.
For `NNC(=O)c1cnn2c1NC(c1ccccc1)C2` (centres unmarked) [compound 12, 2-Phenyl-2,3-dihydro-1H-imidazo[1,2-b]pyrazole-7-carbohydrazide], in series [4], the “activity towards ROS production in neutrophils (in words)” value is “completely inactive”. Besides, the “activity towards ROS production in platelets (in words)” value in [7] was “completely inactive”.
Consider `NNC(=O)c1cnn(CC(O)c2ccccc2)c1N` (centres unmarked) [compound 7, 5-Amino-1-(2-hydroxy-2-phenylethyl)-1H-pyrazole-4-carbohydrazide], for which the melting point is 183 to 184 °C. Moreover, the “activity towards ROS production in neutrophils (in words)” value in series [4] was “completely inactive”. Further, the “activity towards ROS production in platelets (in words)” value in [7] is “completely inactive”.
